In the supplement of paper PMC5908809:

What was measured:
[1] = test system: normal NK cells expanded with K562-aAPC; assay: drug sensitivity score (DSS) (DSS units); higher = more sensitive; extreme values may be limits of the assay; conditions: 72 h; IL-2 2.5 ng/mL
Description: (§1)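 Drug sensitivity and resistance testing on K562-aAPC-expanded normal NK cells: 5 concentrations (10-fold steps over a 10,000-fold range), 72 h at 37 °C, viability by CellTiter-Glo normalised to DMSO and benzethonium chloride controls; DSS from the fitted curve.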

[2] = test system: normal primary NK cells, pool 3 (3 donors) (IL-2 2.5 ng/mL); assay: percent inhibition of viability; higher = more inhibition; conditions: 72 h
[3] = test system: normal primary NK cells, pool 2 (3 donors) (IL-2 2.5 ng/mL); assay: as above; conditions: 72 h
[4] = test system: IMC-1 (IL-2 20 ng/mL); assay: as above; conditions: 72 h
[5] = test system: normal NK cells expanded with K562-aAPC; assay: as above; conditions: 72 h, IL-2 2.5 ng/mL
Description: as §1

[6] = test system: normal primary NK cells, pool 3 (3 donors) (IL-2 2.5 ng/mL); assay: drug sensitivity score (DSS) (DSS units); higher = more sensitive; extreme values may be limits of the assay; conditions: 72 h
[7] = test system: normal primary NK cells, pool 2 (3 donors) (IL-2 2.5 ng/mL); assay: as above; conditions: 72 h
[8] = test system: IMC-1 (IL-2 20 ng/mL); assay: as above; conditions: 72 h
[9] = test system: KHYG-1 (IL-2 2.5 ng/mL); assay: percent inhibition of viability; higher = more inhibition; conditions: 72 h
[10] = test system: SNK-6 (IL-2 2.5 ng/mL); assay: as above; conditions: 72 h
[11] = test system: normal primary NK cells, pool 1 (3 donors) (IL-2 2.5 ng/mL); assay: as above; conditions: 72 h
[12] = test system: YT (IL-2 2.5 ng/mL); assay: as above; conditions: 72 h
[13] = test system: NK-YS (IL-2 2.5 ng/mL); assay: as above; conditions: 72 h
[14] = test system: DERL-7 (IL-2 2.5 ng/mL); assay: as above; conditions: 72 h
[15] = test system: NKL (IL-2 2.5 ng/mL); assay: as above; conditions: 72 h
[16] = test system: NK-92 (IL-2 2.5 ng/mL); assay: as above; conditions: 72 h
[17] = test system: normal primary NK cells, pool 1 (3 donors), resting (IL-2 0 ng/mL); assay: as above; conditions: 72 h
[18] = test system: KAI3 (IL-2 2.5 ng/mL); assay: as above; conditions: 72 h
[19] = test system: KHYG-1 (IL-2 2.5 ng/mL); assay: drug sensitivity score (DSS) (DSS units); higher = more sensitive; extreme values may be limits of the assay; conditions: 72 h
[20] = test system: SNK-6 (IL-2 2.5 ng/mL); assay: as above; conditions: 72 h
[21] = test system: normal primary NK cells, pool 1 (3 donors) (IL-2 2.5 ng/mL); assay: as above; conditions: 72 h
[22] = test system: YT (IL-2 2.5 ng/mL); assay: as above; conditions: 72 h
[23] = test system: NK-YS (IL-2 2.5 ng/mL); assay: as above; conditions: 72 h
[24] = test system: DERL-7 (IL-2 2.5 ng/mL); assay: as above; conditions: 72 h
[25] = test system: NKL (IL-2 2.5 ng/mL); assay: as above; conditions: 72 h
[26] = test system: NK-92 (IL-2 2.5 ng/mL); assay: as above; conditions: 72 h
[27] = test system: normal primary NK cells, pool 1 (3 donors), resting (IL-2 0 ng/mL); assay: as above; conditions: 72 h
[28] = test system: KAI3 (IL-2 2.5 ng/mL); assay: as above; conditions: 72 h

O=C(O)C1(C(=O)O)CCC1.[NH2-].[NH2-].[Pt+2] [Carboplatin] (max concentration tested 100000 nM)
Conditions	drug sensitivity score
[1]	8.66
[6]	5.79
[7]	5.27
[8]	12.8

percent inhibition of viability [%]
Conditions	10 nM	100 nM	1000 nM	10000 nM	100000 nM
[2]	-8.77	-1.51	10.8	18.1	64.7
[3]	1.54	-0.94	13	16.1	60.8
[4]	-6.21	-0.67	1.27	61.7	100
[5]	-8.39	-5.27	0.62	19.3	100

Cc1cnc(Nc2ccc(OCCN3CCCC3)cc2)nc1Nc1cccc(S(=O)(=O)NC(C)(C)C)c1 (max concentration tested 10000 nM)
percent inhibition of viability [%]
Conditions	[9]	[10]	[11]	[12]	[13]	[14]	[15]	[16]	[17]	[18]
1 nM	-4.97	-5	2.15	-4.96	-4.69	2.35	-6.46	-22	-0.59	-2.12
10 nM	-1.52	-10.1	0.15	-1.05	1.18	0.3	3.43	-8.95	16	8.65
100 nM	7.04	-13.7	24.1	6.19	10.9	26.8	50.6	-15.3	14.1	26.5
1000 nM	99.4	58.4	83	51.3	68.9	84.8	83.5	33	51.8	90.3
10000 nM	108	101	99.8	107	108	101	109	106	96.5	108

Conditions	drug sensitivity score
[19]	19
[20]	12.4
[21]	18.2
[22]	11.8
[23]	14.6
[24]	18.8
[25]	22.6
[26]	10.2
[27]	12.3
[28]	19.8

COc1cc(C(=O)O)ccc1NC(=O)[C@@H]1N[C@@H](CC(C)(C)C)[C@](C#N)(c2ccc(Cl)cc2F)[C@H]1c1cccc(Cl)c1F [Idasanutlin] (max concentration tested 10000 nM)
Conditions	drug sensitivity score
[1]	21.9
[6]	17
[7]	19.3
[8]	3.88

percent inhibition of viability [%]
Conditions	1 nM	10 nM	100 nM	1000 nM	10000 nM
[2]	-6.26	-3.17	33.5	68.8	95.6
[3]	-8.25	-4.67	32.8	82.7	97.8
[4]	-3	0.8	-0.27	12.7	40.4
[5]	6.65	13.4	39.6	95.2	101

CC[C@H](C)C(=O)O[C@H]1C[C@H](O)C=C2C=C[C@H](C)[C@H](CC[C@@H](O)C[C@@H](O)CC(=O)O)[C@H]21 [Pravastatin] (max concentration tested 10000 nM)
Conditions	drug sensitivity score
[1]	0
[6]	0
[7]	0
[8]	0

percent inhibition of viability [%]
Conditions	1 nM	10 nM	100 nM	1000 nM	10000 nM
[2]	-14.4	-6.44	1.67	-7.95	-0.67
[3]	-8.99	-4.79	10.9	-9.05	10.6
[4]	1.44	3.55	-0.89	2.49	1.04
[5]	-2.35	-3.35	0.49	5.71	4.92

Cc1cnc(Nc2ccc(OCCN3CCCC3)cc2)nc1Nc1cccc(S(=O)(=O)NC(C)(C)C)c1 [Fedratinib] (max concentration tested 10000 nM)
Conditions	drug sensitivity score
[1]	15.3
[6]	14.9
[7]	15.3
[8]	12.1

percent inhibition of viability [%]
Conditions	1 nM	10 nM	100 nM	1000 nM	10000 nM
[2]	-3.74	-2.87	15.8	68.8	100
[3]	-1.22	-4.41	13.2	72.5	100
[4]	-6.81	-6.37	-28.8	55	101
[5]	-1.65	-2.82	11.2	73.8	101
